Measurements from PubChem BioAssay (NCI).
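96-well plates; 48 h exposure; 5 concentrations. Endpoints by linear interpolation between flanking doses. Not reached: highest tested concentration assigned. GI50: concentration for 50% inhibition of growth. TGI: total growth inhibition.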

Experiments:
Test in all cases: NCI tumour cell line growth inhibition, 48 h
HS 578T breast = tested on: HS 578T breast
COLO 205 colon = tested on: COLO 205 colon
TK-10 renal = tested on: TK-10 renal
MOLT-4 leukemia = tested on: MOLT-4 leukemia
BT-549 breast = tested on: BT-549 breast
PC-3 prostate = tested on: PC-3 prostate
NCI-H522 lung = tested on: NCI-H522 lung
IGROV1 ovarian = tested on: IGROV1 ovarian
OVCAR-3 ovarian = tested on: OVCAR-3 ovarian
NCI/ADR-RES ovarian = tested on: NCI/ADR-RES ovarian
KM12 colon = tested on: KM12 colon
SF-268 CNS = tested on: SF-268 CNS
MDA-MB-231 breast = tested on: MDA-MB-231 breast
UACC-257 melanoma = tested on: UACC-257 melanoma
A549 NSCLC = tested on: A549 NSCLC
HOP-62 NSCLC = tested on: HOP-62 NSCLC
HT29 colon = tested on: HT29 colon
T-47D breast = tested on: T-47D breast
SK-MEL-2 melanoma = tested on: SK-MEL-2 melanoma
OVCAR-5 ovarian = tested on: OVCAR-5 ovarian
OVCAR-4 ovarian = tested on: OVCAR-4 ovarian
ACHN renal = tested on: ACHN renal
SN12C renal = tested on: SN12C renal
NCI-H23 lung = tested on: NCI-H23 lung
SF-295 CNS = tested on: SF-295 CNS
DU-145 prostate = tested on: DU-145 prostate
SK-MEL-28 melanoma = tested on: SK-MEL-28 melanoma
SK-MEL-5 melanoma = tested on: SK-MEL-5 melanoma
RXF 393 renal = tested on: RXF 393 renal
HCT-116 colon = tested on: HCT-116 colon
EKVX NSCLC = tested on: EKVX NSCLC
HOP-92 NSCLC = tested on: HOP-92 NSCLC
HCC-2998 colon = tested on: HCC-2998 colon
MDA-MB-468 breast = tested on: MDA-MB-468 breast
NCI-H460 lung = tested on: NCI-H460 lung
U251 CNS = tested on: U251 CNS
LOX IMVI melanoma = tested on: LOX IMVI melanoma
SF-539 CNS = tested on: SF-539 CNS
UO-31 renal = tested on: UO-31 renal
SNB-75 CNS = tested on: SNB-75 CNS
RPMI-8226 leukemia = tested on: RPMI-8226 leukemia
SK-OV-3 ovarian = tested on: SK-OV-3 ovarian
SW-620 colon = tested on: SW-620 colon
SR leukemia = tested on: SR leukemia
MCF7 breast = tested on: MCF7 breast
UACC-62 melanoma = tested on: UACC-62 melanoma
CCRF-CEM leukemia = tested on: CCRF-CEM leukemia
HCT-15 colon = tested on: HCT-15 colon
HL-60(TB) leukemia = tested on: HL-60(TB) leukemia
SNB-19 CNS = tested on: SNB-19 CNS
CAKI-1 renal = tested on: CAKI-1 renal
M14 melanoma = tested on: M14 melanoma
OVCAR-8 ovarian = tested on: OVCAR-8 ovarian
A498 renal = tested on: A498 renal
786-0 renal = tested on: 786-0 renal
MALME-3M melanoma = tested on: MALME-3M melanoma
NCI-H226 lung = tested on: NCI-H226 lung
MDA-MB-435 = tested on: MDA-MB-435
K-562 leukemia = tested on: K-562 leukemia

Question: What does the source list for COc1ccc(OC)c(-c2cc(-c3c[nH]c4ccccc34)nc(N)c2C#N)c1?
Answer: GI50 (HS 578T breast): 2170 nM; TGI (HS 578T breast): 8.13 µM; GI50 (COLO 205 colon): 2810 nM; TGI (COLO 205 colon): 10.7 µM; GI50 (TK-10 renal): 11.1 µM; TGI (TK-10 renal): 33.7 µM; GI50 (MOLT-4 leukemia): 3.84 µM; TGI (MOLT-4 leukemia): 27 µM; GI50 (BT-549 breast): 1960 nM; TGI (BT-549 breast): 12.3 µM; GI50 (PC-3 prostate): 1930 nM; TGI (PC-3 prostate): 15.5 µM; GI50 (NCI-H522 lung): 736 nM; TGI (NCI-H522 lung): 7.28 µM; GI50 (IGROV1 ovarian): 5.59 µM; TGI (IGROV1 ovarian): 23.1 µM; GI50 (OVCAR-3 ovarian): 2940 nM; TGI (OVCAR-3 ovarian): 14.2 µM; GI50 (NCI/ADR-RES ovarian): 1220 nM; TGI (NCI/ADR-RES ovarian): 5.02 µM; GI50 (KM12 colon): 2710 nM; TGI (KM12 colon): 13.6 µM; GI50 (SF-268 CNS): 3.63 µM; TGI (SF-268 CNS): 19 µM; GI50 (MDA-MB-231 breast): 2060 nM; TGI (MDA-MB-231 breast): 12.6 µM; GI50 (UACC-257 melanoma): 9.47 µM; TGI (UACC-257 melanoma): 21.5 µM; GI50 (A549 NSCLC): 3.74 µM; TGI (A549 NSCLC): 27.5 µM; GI50 (HOP-62 NSCLC): 2880 nM; TGI (HOP-62 NSCLC): 16.2 µM; GI50 (HT29 colon): 2740 nM; TGI (HT29 colon): 12.3 µM; GI50 (T-47D breast): 2180 nM; TGI (T-47D breast): 12.6 µM; GI50 (SK-MEL-2 melanoma): 2390 nM; TGI (SK-MEL-2 melanoma): 6.58 µM; GI50 (OVCAR-5 ovarian): 5.94 µM; TGI (OVCAR-5 ovarian): 21.8 µM; GI50 (OVCAR-4 ovarian): 5.42 µM; TGI (OVCAR-4 ovarian): 25.3 µM; GI50 (ACHN renal): 4.92 µM; TGI (ACHN renal): 22.7 µM; GI50 (SN12C renal): 5.06 µM; TGI (SN12C renal): 17.7 µM; GI50 (NCI-H23 lung): 2820 nM; TGI (NCI-H23 lung): 15.2 µM; GI50 (SF-295 CNS): 3.43 µM; TGI (SF-295 CNS): 13 µM; GI50 (DU-145 prostate): 8.2 µM; TGI (DU-145 prostate): 27.5 µM; GI50 (SK-MEL-28 melanoma): 3.46 µM; TGI (SK-MEL-28 melanoma): 17.8 µM; GI50 (SK-MEL-5 melanoma): 804 nM; TGI (SK-MEL-5 melanoma): 4.18 µM; GI50 (RXF 393 renal): 1770 nM; TGI (RXF 393 renal): 10.4 µM; GI50 (HCT-116 colon): 2420 nM; TGI (HCT-116 colon): 13.2 µM; GI50 (EKVX NSCLC): 1570 nM; TGI (EKVX NSCLC): 16.4 µM; GI50 (HOP-92 NSCLC): 1300 nM; TGI (HOP-92 NSCLC): 4.38 µM; GI50 (HCC-2998 colon): 2980 nM; TGI (HCC-2998 colon): 13.9 µM; GI50 (MDA-MB-468 breast): 65.9 nM; TGI (MDA-MB-468 breast): 369 nM; GI50 (NCI-H460 lung): 1580 nM; TGI (NCI-H460 lung): 13.2 µM; GI50 (U251 CNS): 3.2 µM; TGI (U251 CNS): 13.8 µM; GI50 (LOX IMVI melanoma): 2950 nM; TGI (LOX IMVI melanoma): 12.8 µM; GI50 (SF-539 CNS): 2900 nM; TGI (SF-539 CNS): 11.7 µM; GI50 (UO-31 renal): 3.9 µM; TGI (UO-31 renal): 18.4 µM; GI50 (SNB-75 CNS): 1300 nM; TGI (SNB-75 CNS): 5.14 µM; GI50 (RPMI-8226 leukemia): 1950 nM; TGI (RPMI-8226 leukemia): > 100 µM; GI50 (SK-OV-3 ovarian): 3.63 µM; TGI (SK-OV-3 ovarian): 18 µM; GI50 (SW-620 colon): 2900 nM; TGI (SW-620 colon): 15.6 µM; GI50 (SR leukemia): 539 nM; TGI (SR leukemia): 21.2 µM; GI50 (MCF7 breast): 135 nM; TGI (MCF7 breast): 12.5 µM; GI50 (UACC-62 melanoma): 2670 nM; TGI (UACC-62 melanoma): 13.5 µM; GI50 (CCRF-CEM leukemia): 2400 nM; TGI (CCRF-CEM leukemia): 28.8 µM; GI50 (HCT-15 colon): 903 nM; TGI (HCT-15 colon): 13.4 µM; GI50 (HL-60(TB) leukemia): 2420 nM; TGI (HL-60(TB) leukemia): 25.4 µM; GI50 (SNB-19 CNS): 5.47 µM; TGI (SNB-19 CNS): 19.3 µM; GI50 (CAKI-1 renal): 1510 nM; TGI (CAKI-1 renal): 20.6 µM; GI50 (M14 melanoma): 1600 nM; TGI (M14 melanoma): 11.6 µM; GI50 (OVCAR-8 ovarian): 4.94 µM; TGI (OVCAR-8 ovarian): 18.2 µM; GI50 (A498 renal): 8.86 µM; TGI (A498 renal): 21.9 µM; GI50 (786-0 renal): 2610 nM; TGI (786-0 renal): 9.13 µM; GI50 (MALME-3M melanoma): 3.25 µM; TGI (MALME-3M melanoma): 16.7 µM; GI50 (NCI-H226 lung): 5.81 µM; TGI (NCI-H226 lung): 20.5 µM; GI50 (MDA-MB-435): 390 nM; TGI (MDA-MB-435): 1860 nM; GI50 (K-562 leukemia): 881 nM; TGI (K-562 leukemia): 82.3 µM
